Reference: patent US9023385B2, “Pharmaceutical use of 2-(4-morpholinoaniline)-6-cyclohexyl aminopurine and/or salt thereof for improving liver functioning” (Zhangzhou Pien Tze Huang Pharmaceutical Co., Ltd., priority 2011, dated 2015)
“Also recorded” adds a separate entry of the source.

How the values were obtained:
[1] = tested on: activated rat hepatic stellate cells; settings: 5-10 μM
Description: The isolation of the rat hepatic stellate cells: The liver of an adult male Sprague-Dawley rats (500-600 g) were excised out after perfusion with pronase and collagenase. The liver tissue was homogenized and centrifuged. […] The cells were cultured in DMEM (Dulbecco Meliorated Eagle Medium) with 20% FBS inside culture plates at a cell density of 1.5×10^5 cells/cm^2. After two days incubation, the culture medium was changed and the cell debris was washed and removed.
The culture condition of rat hepatic stellate cells: The rat hepatic stellate cells were cultured in DMEM containing 20% fetal bovine serum (FBS), penicillin (100 U/ml) and streptomycin (100 ug/ml) at 37° C. in 5% CO2. The culture medium was changed for every fourth day.
The inhibitory effect of 2-(4-morpholinoaniline)-6-cyclohexyl aminopurine on activated rat hepatic stellate cells: The cells were treated with 5-10 μM of 2-(4-morpholinoaniline)-6-cyclohexyl aminopurine for 24 hours. The treated cells were then collected for Microarrays analysis. The treated cells were also processed for immunofluorescence staining and RT-PCR quantification.
The western blot analysis: The cells are disrupted in 200 μl lysis buffer (50 mM NaCl, 20 mM Tris (trihydroxymethyl aminomethane) pH 7.6, 1% Nonidet P-40, 1× protease inhibitor compounds) for 1 hour at 4° C. After incubation, the lysate was centrifuged at 16,000×g for 10 mins. The supernatant was transferred to a new tube and a protein quantification kit was used to quantify the concentration of proteins in each samples. 25 μg of total protein from each sample was loaded into the 10% SDS PAGE gel for analysis. Collagen-I, MMP-2, MMP-3, TIMP-2 and TIMP-3 mouse monoclonal antibodies (Santa Cruz Lab) were used to analyze the samples. Beta-actin and beta-tubulin monoclonal antibodies (1:1000 diluted) were used as internal control and normalization.

[2] = tested on: CCl4-induced liver fibrosis; settings: Sprague-Dawley rats, CCl4 i.p. 6 weeks, then 50 or 100 μg/kg i.p. twice a week for two or four weeks
Description: Twenty-four adult male Sprague-Dawley rats (500-600 g) were divided into 4 groups (n=6), the first group (control) was injected with carbon tetrachloride (CCl4) intraperitonally (i.p.) twice per week for 6 weeks to induce liver fibrosis. […] At the end of the experimentation, the different groups of rats were sacrificed and samples of the liver were collected and fixed in 4% buffered formalin for 24 hours. Paraffin embedded samples were sectioned for histology and immunohistochemistry. Liver samples were also collected and stored in −20° C. for Western Blot Analysis and RT-PCR quantification.

With `c1nc2c(NC3CCCCC3)nc(Nc3ccc(N4CCOCC4)cc3)nc2[nH]1` [2-(4-morpholinoaniline)-6-cyclohexyl aminopurine] the “Expression and synthesis of matrix metalloproteinases-2 (MMP-2) by activated hepatic stellate cells” value ([1]; treatment for 3 days (FIG. 3B)) was “inhibited them from expressing and synthesizing and MMP-2; also recorded: suppressed activated hepatic stellate cells from expressing and synthesizing MMP-2 and MMP-3”, the “Expression and synthesis of matrix metalloproteinases-3 (MMP-3) by activated hepatic stellate cells” value ([1]; treatment for 3 days (FIG. 3D)) was “inhibited them from expressing and synthesizing MMP-3; also recorded: suppressed activated hepatic stellate cells from expressing and synthesizing MMP-2 and MMP-3” and the “Expression and synthesis of tissue inhibitor of metalloproteinase-2 (TIMP-2) by activated hepatic stellate cells” value ([1]; treatment for 3 days (FIG. 4B)) was “could inhibit activated hepatic stellate cells from expressing and synthesizing TIMP-2; also recorded: could inhibit the cells from producing TIMP-2 and TIMP-3”. For the same compound, the “Expression and synthesis of TIMP-3 by activated hepatic stellate cells” value ([1]; treatment for 3 days (FIG. 4D)) was “inhibited them from expressing and synthesizing TIMP-3; also recorded: could inhibit the cells from producing TIMP-2 and TIMP-3” and the “Collagen synthesis in liver (histology, FIG. 5)” value [2] was “effective in inhibiting collagen synthesis”.
